Reference: patent publication US20260027071A1, “COMPOSITION FOR PROMOTING COLLAGEN PRODUCTION COMPRISING AMIDATED AMINO ACID” (KYUNGPOOK NATIONAL UNIVERSITY INDUSTRY-ACADEMIC COOPERATION …, priority 2022, published 2026)
Entries after “also recorded” stand apart in the source; their conditions may differ. Peptide text beside a SMILES is read from it.

tested on: Human dermal fibroblasts (HDF); test: Collagen protein in conditioned media (Sircol Collagen Assay) of human dermal fibroblasts; assay type: cell-based; settings: HDF treated at 1 mM; result in words
Procedure: The collagen protein levels in the conditioned media were evaluated using the Sircol™ Collagen Assay (Biocolor, Antrim, UK) according to the manufacturer's instructions. […] After discarding the media, the cells were washed with 500 μL of phosphate-buffered saline (PBS), then incubated in 1 mL of serum-free media for another 24 hours. A 1.0 mL media sample (either conditioned media or fresh media as a negative control) was transferred to a microcentrifuge tube, mixed with 100 μL of collagen isolation and concentration reagent, and incubated overnight at 4° C. The samples were centrifuged at 13,000×g for 10 minutes at 4° C., and the supernatant was carefully removed using a pipette without disturbing the pellet. Each tube was then added with 500 μL of Sircol dye reagent, inverted five times, and shaken at room temperature for 30 minutes. After centrifugation, the supernatant was discarded, and the pellet was washed with 500 μL of cold acid-salt washing reagent, followed by another centrifugation step. The pellet was then dissolved in 250 μL of alkali reagent, and a 200 μL portion was transferred to a 96-well plate. The optical density of the solution was read at 555 nm using a Spectrostar Nano microplate reader (BMG LABTECH GmbH, Ortenberg, Germany).

**Q.** `CC(C)C[C@H](N)C(=O)O` [leucine, L-Leucine, reference compound] was tested. Which “collagen production (collagen levels secreted into the media)” value did it give?
**A.** increased collagen

**Q.** How did the “collagen production (collagen levels secreted into the media)” value turn out when `NCC(=O)NCC(=O)O` [glycyl glycine, reference compound] (H-Gly-Gly-OH) was run?
**A.** did not affect collagen production

**Q.** `Cl.NC(=O)C[C@H](N)C(N)=O` [asparaginamide, L-Asparaginamide HCl] was tested. Which “collagen production (collagen levels secreted into the media)” value did it give?
**A.** no significant effect

**Q.** `CC[C@H](C)[C@H](N)C(N)=O.Cl` [isoleucinamide, L-Isoleucinamide HCl] was tested. Which “collagen production (collagen levels secreted into the media)” value did it give?
**A.** enhanced the collagen levels

**Q.** Which “collagen production (collagen levels secreted into the media)” value does the source give for `CCOC(=O)CN.Cl` [glycine ethyl ester, glycine ethyl ester HCl, reference compound] here?
**A.** did not affect collagen production

**Q.** With `Cl.NC(=O)[C@@H]1CCCN1` [prolinamide, L-Prolinamide HCl] as the molecule, how does the “collagen production (collagen levels secreted into the media)” value read?
**A.** enhanced the collagen levels

**Q.** `NCC(=O)O` [glycine, Glycine, reference compound] was tested. Which “collagen production (collagen levels secreted into the media)” value did it give?
**A.** most effectively increased collagen; also recorded: enhanced collagen production

**Q.** How did the “collagen production (collagen levels secreted into the media)” value turn out when `COC(=O)CN.Cl` [glycine methyl ester, glycine methyl ester HCl, reference compound] was run?
**A.** somewhat reducing effect

**Q.** `Cl.NC(=O)[C@@H](N)Cc1ccccc1` [phenylalaninamide, L-Phenylalaninamide HCl] was tested. Which “collagen production (collagen levels secreted into the media)” value did it give?
**A.** enhanced the collagen levels

**Q.** Which “collagen production (collagen levels secreted into the media)” value does the source give for `CC(C)C[C@H](N)C(N)=O.Cl` [leucinamide, L-Leucinamide HCl] here?
**A.** enhanced the collagen levels

**Q.** How did the “collagen production (collagen levels secreted into the media)” value turn out when `C[C@@H](O)[C@H](N)C(N)=O.Cl` [threoninamide, L-Threoninamide HCl] was run?
**A.** enhanced the collagen levels

**Q.** For `C[C@H](N)C(N)=O.Cl` [alaninamide, L-Alaninamide HCl], which “collagen production (collagen levels secreted into the media)” value is on record?
**A.** enhanced the collagen levels

**Q.** How did the “collagen production (collagen levels secreted into the media)” value turn out when `CC(C)[C@H](N)C(N)=O.Cl` [valinamide, L-Valinamide HCl] was run?
**A.** enhanced the collagen levels

**Q.** How did the “collagen production (collagen levels secreted into the media)” value turn out when `Cl.NC(=O)[C@@H](N)CO` [serinamide, L-Serinamide HCl] was run?
**A.** no significant effect

**Q.** For `NCC(=O)NCC(=O)O` [glycylglycine] (H-Gly-Gly-OH), which “collagen production (collagen levels secreted into the media)” value is on record?
**A.** promoted collagen production

**Q.** `Cl.Cl.N=C(N)NCCC[C@H](N)C(N)=O` [argininamide, L-Argininamide diHCl] was tested. Which “collagen production (collagen levels secreted into the media)” value did it give?
**A.** enhanced the collagen levels

**Q.** Which “collagen production (collagen levels secreted into the media)” value does the source give for `Cl.NC(=O)[C@@H](N)CS` [cysteinamide, L-Cysteinamide HCl] here?
**A.** enhanced the collagen levels

**Q.** With `NC(=O)[C@@H](N)CCC(=O)O` [glutamic acid α-amide, L-Glutamic acid α-amide] as the molecule, how does the “collagen production (collagen levels secreted into the media)” value read?
**A.** enhanced the collagen levels

**Q.** How did the “collagen production (collagen levels secreted into the media)” value turn out when `Cl.NC(=O)[C@@H](N)Cc1ccc(O)cc1` [tyrosinamide, L-Tyrosinamide HCl] was run?
**A.** enhanced the collagen levels

**Q.** Which “collagen production (collagen levels secreted into the media)” value does the source give for `Cl.NC(=O)[C@@H](N)Cc1c[nH]cn1` [histidinamide, L-Histidinamide HCl] here?
**A.** no significant effect

**Q.** Which “collagen production (collagen levels secreted into the media)” value does the source give for `CC[C@H](C)[C@H](N)C(=O)O` [isoleucine, L-Isoleucine, reference compound] here?
**A.** increased collagen

**Q.** `CC(=O)NCC(=O)O` [N-acetyl glycine, reference compound] was tested. Which “collagen production (collagen levels secreted into the media)” value did it give?
**A.** did not affect collagen production

**Q.** With `Cl.NC(=O)CC[C@H](N)C(N)=O` [glutaminamide, L-Glutaminamide HCl] as the molecule, how does the “collagen production (collagen levels secreted into the media)” value read?
**A.** enhanced the collagen levels

same assay, conditions: HDF, 0.25 mM

**Q.** With `NCC(=O)NCC(=O)O` [glycylglycine] (H-Gly-Gly-OH) as the molecule, how does the collagen production read?
**A.** increased collagen production

same assay, conditions: HDF, 1-2 mM

**Q.** With `NCC(=O)NCC(=O)O` [glycylglycine] (H-Gly-Gly-OH) as the molecule, how does the collagen production read?
**A.** greatest enhancement of collagen production

same assay, conditions: HDF, 3 and 5 mM

**Q.** Which collagen production does the source give for `NCC(=O)O` [glycine, Glycine, reference compound] here?
**A.** significantly reduced

**Q.** Which collagen production does the source give for `NCC(=O)NCC(=O)O` [glycylglycine] (H-Gly-Gly-OH) here?
**A.** slightly reduced
